Reference: patent US6936585B2, “Corticotropin releasing factor 2 receptor agonists” (priority 2002, dated 2005)
Ends that are not written are not given here. Peptide text beside a SMILES is read from it.

Experiments:
CRF2R = target: T1, CRF2R (Homo sapiens, UniProt Q13324); experiment: CRF2R agonist activation (EC50 / Emax), called comparative CRF binding; format: cell-based; conditions: for Emax: read-out: CRF2R Emax; for EC50: read-out: CRF2R EC50
T1 sequence (Q13324 1-411): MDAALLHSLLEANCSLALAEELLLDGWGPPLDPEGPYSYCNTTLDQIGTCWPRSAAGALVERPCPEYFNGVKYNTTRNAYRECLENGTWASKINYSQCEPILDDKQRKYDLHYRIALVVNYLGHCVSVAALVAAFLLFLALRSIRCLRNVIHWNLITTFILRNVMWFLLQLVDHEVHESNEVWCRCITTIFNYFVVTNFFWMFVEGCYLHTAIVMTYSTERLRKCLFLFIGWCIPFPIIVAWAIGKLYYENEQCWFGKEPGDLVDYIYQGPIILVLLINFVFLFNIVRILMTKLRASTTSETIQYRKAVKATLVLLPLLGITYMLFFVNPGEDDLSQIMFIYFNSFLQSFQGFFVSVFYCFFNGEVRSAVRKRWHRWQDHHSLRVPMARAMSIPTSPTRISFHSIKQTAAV
Outline: (§1)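 Cells expressing full-length human CRF1R or CRF2R were exposed to peptide or vehicle control, and receptor activation was gauged as cAMP induction. cAMP was measured in cell lysates or via a cAMP-responsive element driving a reporter gene such as luciferase, CAT, GFP or alkaline phosphatase.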

CRF1R = target: T2, CRF1R (Homo sapiens, UniProt P34998); experiment: CRF1R agonist activation (EC50 / Emax), called comparative CRF binding; format: cell-based; conditions: for Emax: read-out: CRF1R Emax; for EC50: read-out: CRF1R EC50
T2 sequence (P34998 24-415): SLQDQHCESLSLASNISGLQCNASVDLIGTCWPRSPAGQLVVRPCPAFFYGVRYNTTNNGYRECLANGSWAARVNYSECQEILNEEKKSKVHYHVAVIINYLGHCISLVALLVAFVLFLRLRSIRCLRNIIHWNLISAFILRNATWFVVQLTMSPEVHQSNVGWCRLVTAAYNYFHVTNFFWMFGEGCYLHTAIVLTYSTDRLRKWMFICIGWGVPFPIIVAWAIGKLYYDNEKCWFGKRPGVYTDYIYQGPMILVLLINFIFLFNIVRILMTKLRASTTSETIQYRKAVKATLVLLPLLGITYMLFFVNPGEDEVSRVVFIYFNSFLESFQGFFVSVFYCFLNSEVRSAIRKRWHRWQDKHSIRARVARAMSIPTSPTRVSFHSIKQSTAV
Outline: as §1

Compound	Emax (CRF2R) [%]	Emax (CRF1R) [%]	EC50 (CRF2R) [µM]	EC50 (CRF1R) [µM]
CC[C@H](C)[C@H](NC(=O)[C@H](C)NC(=O)[C@H](CC(N)=O)NC(=O)[C@H](CCC(N)=O)NC(=O)[C@H](CCC(=O)O)NC(=O)[C@H](C)NC(=O)[C@H](CCCNC(=N)N)NC(=O)[C@H](CCC(=O)O)NC(=O)[C@H](CCCNC(=N)N)NC(=O)[C@H](CCC(N)=O)NC(=O)[C@H](CO)NC(=O)[C@H](CCC(N)=O)NC(=O)[C@@H](NC(=O)[C@H](CCCNC(=N)N)NC(=O)[C@H](C)NC(=O)[C@H](CC(C)C)NC(=O)[C@H](CCC(=O)O)NC(=O)[C@H](CC(C)C)NC(=O)[C@H](CC(C)C)NC(=O)[C@@H](NC(=O)[C@H](CCCNC(=N)N)NC(=O)[C@H](CC(C)C)NC(=O)[C@H](CC(C)C)NC(=O)[C@@H](NC(=O)[C@H](Cc1ccccc1)NC(=O)[C@@H]1CCCN1C(=O)[C@H](CC(C)C)NC(=O)[C@H](CC(=O)O)NC(=O)[C@@H](NC(=O)[C@H](CO)NC(=O)[C@H](CC(C)C)NC(=O)[C@H](CO)NC(=O)[C@@H]1CCCN1C(=O)[C@H](CC(N)=O)NC(=O)[C@@H](N)CC(=O)O)[C@@H](C)CC)[C@@H](C)CC)[C@@H](C)O)[C@@H](C)O)C(=O)N[C@H](C(=O)N[C@@H](Cc1ccccc1)C(=O)N[C@@H](C)C(=O)N[C@@H](CO)C(=O)N[C@H](C(N)=O)C(C)C)[C@@H](C)CC [compound 181] (H-DNPSLSIDLPFILLRTLLELARTQSQRERAEQNAIIFASV-NH2; N-terminus assumed)	97.8	100		
CC[C@H](C)[C@H](NC(=O)[C@H](C)NC(=O)[C@H](CC(N)=O)NC(=O)[C@H](CCC(N)=O)NC(=O)[C@H](CCC(=O)O)NC(=O)[C@H](C)NC(=O)[C@H](CCCNC(=N)N)NC(=O)[C@H](CCC(=O)O)NC(=O)[C@H](CCCNC(=N)N)NC(=O)[C@H](CCC(N)=O)NC(=O)[C@H](CO)NC(=O)[C@H](CCC(N)=O)NC(=O)[C@@H](NC(=O)[C@H](CCCNC(=N)N)NC(=O)[C@H](C)NC(=O)[C@H](CC(C)C)NC(=O)[C@H](CCC(=O)O)NC(=O)[C@H](CC(C)C)NC(=O)[C@H](CC(C)C)NC(=O)[C@@H](NC(=O)[C@H](CCCNC(=N)N)NC(=O)[C@H](CC(C)C)NC(=O)[C@H](CC(C)C)NC(=O)[C@H](Cc1ccc(O)cc1)NC(=O)[C@H](Cc1ccccc1)NC(=O)[C@@H]1CCCN1C(=O)[C@H](CC(C)C)NC(=O)[C@H](CC(=O)O)NC(=O)[C@@H](NC(=O)[C@H](CO)NC(=O)[C@H](CC(C)C)NC(=O)[C@H](CO)NC(=O)[C@@H]1CCCN1C(=O)[C@H](CC(N)=O)NC(=O)[C@@H](N)CC(=O)O)[C@@H](C)CC)[C@@H](C)O)[C@@H](C)O)C(=O)N[C@H](C(=O)N[C@@H](Cc1ccccc1)C(=O)N[C@@H](C)C(=O)N[C@@H](CO)C(=O)N[C@H](C(N)=O)C(C)C)[C@@H](C)CC [compound 183] (H-DNPSLSIDLPFYLLRTLLELARTQSQRERAEQNAIIFASV-NH2; N-terminus assumed)	100	57.5		
NDDPPISIDLPQYLLRNMIEMARIENEREQAGLNAKYLAEV-NH2 [compound 265]	23.4	9.3		
CC[C@H](C)[C@H](N)C(=O)N[C@H](C(=O)N[C@@H](CC(C)C)C(=O)N[C@@H](CO)C(=O)N[C@@H](CC(C)C)C(=O)N[C@@H](CC(=O)O)C(=O)N[C@H](C(=O)N[C@H](C(=O)N[C@H](C(=O)NCC(=O)N[C@@H](CC(C)C)C(=O)N[C@@H](CC(C)C)C(=O)N[C@@H](CCC(N)=O)C(=O)N[C@H](C(=O)N[C@@H](CC(C)C)C(=O)N[C@@H](CC(C)C)C(=O)N[C@@H](CCC(=O)O)C(=O)N[C@@H](CCC(N)=O)C(=O)N[C@@H](C)C(=O)N[C@@H](CCCNC(=N)N)C(=O)N[C@@H](C)C(=O)N[C@@H](CCCNC(=N)N)C(=O)N[C@@H](C)C(=O)N[C@@H](C)C(=O)N[C@@H](CCCNC(=N)N)C(=O)N[C@@H](CCC(=O)O)C(=O)N[C@@H](CCC(N)=O)C(=O)N[C@@H](C)C(=O)N[C@H](C(=O)N[C@H](C(=O)N[C@@H](CC(N)=O)C(=O)N[C@@H](C)C(=O)N[C@@H](CCCNC(=N)N)C(=O)N[C@H](C(=O)N[C@@H](CC(C)C)C(=O)N[C@@H](C)C(=O)N[C@@H](CCCNC(=N)N)C(=O)N[C@H](C(N)=O)C(C)C)[C@@H](C)CC)[C@@H](C)O)[C@@H](C)O)[C@@H](C)CC)[C@@H](C)CC)C(C)C)C(C)C)C(C)C [compound 214] (H-IVLSLDVVIGLLQILLEQARARAAREQATTNARILARV-NH2; N-terminus assumed)	60	4		
CC[C@H](C)[C@H](NC(=O)[C@H](CCC(N)=O)NC(=O)[C@H](C)NC(=O)[C@H](CC(N)=O)NC(=O)[C@H](CCC(N)=O)NC(=O)[C@H](CCC(=O)O)NC(=O)[C@H](C)NC(=O)[C@H](CCCNC(=N)N)NC(=O)[C@H](CCC(=O)O)NC(=O)[C@H](CCCNC(=N)N)NC(=O)[C@H](CCC(N)=O)NC(=O)[C@H](CO)NC(=O)[C@H](CCC(N)=O)NC(=O)[C@@H](NC(=O)[C@H](CCCCN)NC(=O)[C@H](CCC(=O)O)NC(=O)[C@H](CC(C)C)NC(=O)[C@H](CCC(=O)O)NC(=O)[C@H](CC(C)C)NC(=O)[C@H](CC(C)C)NC(=O)[C@@H](NC(=O)[C@H](CCCNC(=N)N)NC(=O)[C@H](CC(C)C)NC(=O)[C@H](CC(C)C)NC(=O)[C@H](CC(C)C)NC(=O)[C@H](CC(C)C)NC(=O)[C@@H]1CCCN1C(=O)[C@H](CC(C)C)NC(=O)[C@H](CC(=O)O)NC(=O)[C@@H](NC(=O)[C@H](CO)NC(=O)[C@H](CC(C)C)NC(=O)[C@H](CO)NC(=O)[C@@H]1CCCN1C(=O)[C@H](CC(N)=O)NC(=O)[C@@H](N)CC(=O)O)[C@@H](C)CC)[C@@H](C)O)[C@@H](C)O)C(=O)N[C@@H](Cc1ccccc1)C(=O)N[C@@H](C)C(=O)N[C@@H](Cc1c[nH]cn1)C(=O)N[C@H](C(N)=O)C(C)C [compound 324] (H-DNPSLSIDLPLLLLRTLLELEKTQSQRERAEQNAQIFAHV-NH2; N-terminus assumed)	100	46.6	0.0172	≥ 1
CC[C@H](C)[C@H](N)C(=O)N[C@H](C(=O)N[C@@H](CC(C)C)C(=O)N[C@@H](CO)C(=O)N[C@@H](CC(C)C)C(=O)N[C@@H](CC(=O)O)C(=O)N[C@H](C(=O)N1CCC[C@H]1C(=O)N[C@H](C(=O)NCC(=O)N[C@@H](CC(C)C)C(=O)N[C@@H](CC(C)C)C(=O)N[C@@H](CCC(N)=O)C(=O)N[C@H](C(=O)N[C@@H](CC(C)C)C(=O)N[C@@H](CC(C)C)C(=O)N[C@@H](CCC(=O)O)C(=O)N[C@@H](CCC(N)=O)C(=O)N[C@@H](C)C(=O)N[C@@H](CCCCN)C(=O)N[C@@H](CCC(N)=O)C(=O)N[C@@H](CCCNC(=N)N)C(=O)N[C@@H](C)C(=O)N[C@@H](C)C(=O)N[C@@H](CCCNC(=N)N)C(=O)N[C@@H](CCC(=O)O)C(=O)N[C@@H](CCC(N)=O)C(=O)N[C@@H](C)C(=O)N[C@H](C(=O)N[C@H](C(=O)N[C@@H](CC(N)=O)C(=O)N[C@@H](C)C(=O)N[C@@H](CCCNC(=N)N)C(=O)N[C@H](C(=O)N[C@@H](CC(C)C)C(=O)N[C@@H](C)C(=O)N[C@@H](CCCNC(=N)N)C(=O)N[C@H](C(N)=O)C(C)C)[C@@H](C)CC)[C@@H](C)O)[C@@H](C)O)[C@@H](C)CC)[C@@H](C)CC)C(C)C)C(C)C [compound 110] (H-IVLSLDVPIGLLQILLEQAKQRAAREQATTNARILARV-NH2; N-terminus assumed)	100	9	0.011	> 0.1
CC[C@H](C)[C@H](N)C(=O)N[C@H](C(=O)N[C@@H](CC(C)C)C(=O)N[C@@H](CO)C(=O)N[C@@H](CC(C)C)C(=O)N[C@@H](CC(=O)O)C(=O)N[C@H](C(=O)N1CCC[C@H]1C(=O)N[C@H](C(=O)NCC(=O)N[C@@H](CC(C)C)C(=O)N[C@@H](CC(C)C)C(=O)N[C@@H](CCC(N)=O)C(=O)N[C@H](C(=O)N[C@@H](CC(C)C)C(=O)N[C@@H](CC(C)C)C(=O)N[C@@H](CCC(=O)O)C(=O)N[C@@H](CCC(N)=O)C(=O)N[C@@H](CCC(=O)O)C(=O)N[C@@H](CCCNC(=N)N)C(=O)N[C@@H](C)C(=O)N[C@@H](CCC(=O)O)C(=O)N[C@@H](C)C(=O)N[C@@H](C)C(=O)N[C@@H](CCCNC(=N)N)C(=O)N[C@@H](CCC(=O)O)C(=O)N[C@@H](CCC(N)=O)C(=O)N[C@@H](C)C(=O)N[C@H](C(=O)N[C@H](C(=O)N[C@@H](CC(N)=O)C(=O)N[C@@H](C)C(=O)N[C@@H](CCCNC(=N)N)C(=O)N[C@H](C(=O)N[C@@H](CC(C)C)C(=O)N[C@@H](C)C(=O)N[C@@H](CCCNC(=N)N)C(=O)N[C@H](C(N)=O)C(C)C)[C@@H](C)CC)[C@@H](C)O)[C@@H](C)O)[C@@H](C)CC)[C@@H](C)CC)C(C)C)C(C)C [compound 113] (H-IVLSLDVPIGLLQILLEQERAEAAREQATTNARILARV-NH2; N-terminus assumed)	98	4	0.0113	> 0.1
